Assay results as given in patent publication US7964623B2, “Tricyclic benzopyrane compound” (Nissan Chemical Industries Ltd., priority 2004, dated 2011).

Tests used:
atrium = experiment: Effects on the atrial effective refractory period (S1-S2 extrastimulus technique during bilateral vagal nerve stimulation) in anesthetized beagles; assay type: in vivo; settings: intravenous, from 5 minutes after administration, basic cycle length 300 msec
Method: Effects on the Effective Refractory Period
Beagles were anesthetized with pentobarbital sodium and thoracotomy was done along the median line under a respirator and the incision was made on the pericardium to expose the heart. An electrocardiogram (ECG) was recorded using bipolar electrodes attached to the surface of the right atrial free wall, right atrial auricle, and right ventricular free wall. The vagal nerves were stimulated using an electrostimulation device with Nichrome wires inserted into the vagal nerves in the neck bilaterally. The conditions for electrostimulation to the vagal nerves were set such that the RR intervals on ECG were prolonged by about 100 msec compared with those before the stimulation was started.
Atrial and ventricular effective refractory periods were determined by S1-S2 extrastimulus technique at basic cycle length of 300 msec during bilateral vagal nerve stimulation, using programmable electric stimulator. A train of 10 basic stimuli (S1) was followed by a premature extrastimulus (S2) at 2 times diastolic threshold.
For evaluation of drug effects, the atrial and ventricular effective refractory periods were determined before drug administration, then respective compound was administrated intravenously at the dose of 0.3 mg/kg or 0.6 mg/kg, and the atrial and ventricular effective refractory periods were determined from 5 minutes after the administration.
The results were shown as the prolongation time on the atrial and ventricular effective refractory periods, i.e. [effective refractory period after drug administration]−[effective refractory period before drug administration] (msec).

Q: With `Cc1cc(Cl)nc2cc3c(cc12)OC(C)(C)C(O)C3NCCc1ccccc1.O=C(O)/C=C\C(=O)O` (racemic) [Synthesis Example 6, (±)-trans-7-Chloro-2,2,9-trimethyl-4-[(2-phenylethyl)amino]-3,4-dihydro-2H-pyrano[2,3-g]quinolin-3-ol 1 maleate] as the compound, how does the melting point read?
A: 221 to 226 °C (dec.)

Q: What about the “Atrial Refractory Period (prolongation time on the atrial effective refractory period)” value (from here on “Atrial Refractory Period”) (atrium; 0.6 mg/kg) of the same compound?
A: 20 ms

Q: What does the source list for `Cc1cc(C#N)nc2cc3c(cc12)OC(C)(C)C(O)C3NCCc1ccccc1.O=C(O)/C=C\C(=O)O` (racemic) [Synthesis Example 7, (±)-trans-3-Hydroxy-2,2,9-trimethyl-4-[(2-phenylethyl)amino]-3,4-dihydro-2H-pyrano[2,3-g]quinoline-7-carbonitrile 1 maleate]?
A: melting point: 218 to 220 °C (dec.); Atrial Refractory Period (prolongation time on the atrial effective refractory period) (atrium; 0.6 mg/kg): 25 ms

Q: For `CC1(C)Oc2cc3nccnc3cc2[C@H](NCCC2CCCCC2)[C@H]1O.Cl` (relative stereo) [Synthesis Example 69, (3R*,4S*)-4-[(2-cyclohexylethyl)amino)]-2,2-dimethyl-3,4-dihydro-2H-pyrano[2,3-g]quinoxalin-3-ol hydrochloride], which melting point is on record?
A: 258 to 259 °C (dec.)

Q: What about the “Atrial Refractory Period” value (atrium; 0.3 mg/kg) of the same compound?
A: 37 ms

Q: Which results are given for `CCCCCN[C@H]1c2cc3nccnc3cc2OC(C)(C)[C@@H]1O.Cl` (relative stereo) [Synthesis Example 63, (3R*,4S*)-2,2-dimethyl-4-pentylamino-3,4-dihydro-2H-pyrano[2,3-g]quinoxalin-3-ol hydrochloride]?
A: melting point: 209 to 212 °C (dec.); Atrial Refractory Period (prolongation time on the atrial effective refractory period) (atrium; 0.3 mg/kg): 23 ms

Q: With `Cc1cc(C)c2cc3c(cc2n1)C(NCCc1ccccc1)C(O)C(C)(C)O3` (racemic) [Synthesis Example 2, (±)-trans-2,2,7,9-Tetramethyl-4-[(2-phenylethyl)amino]-3,4-dihydro-2H-pyrano[2,3-g]quinolin-3-ol] as the compound, how does the melting point read?
A: 144 to 147 °C

Q: What about the “Atrial Refractory Period” value (atrium; 0.6 mg/kg) of the same compound?
A: 21 ms

Q: With `CC1(C)Oc2ccc3ncccc3c2C(NCCc2ccccc2)C1O` (racemic) [Synthesis Example 8, (±)-trans-3,3-Dimethyl-1-[(2-phenylethyl)amino]-2,3-dihydro-1H-pyrano[3,2-f]quinolin-2-ol] as the compound, how does the melting point read?
A: 180 to 182 °C

Q: And the “Atrial Refractory Period” value (atrium; 0.6 mg/kg)?
A: 23 ms

Q: What does the source list for `CC1(C)Oc2cc3cccnc3cc2[C@H](NCCc2ccccc2)[C@H]1O.O=C(O)/C=C\C(=O)O` (relative stereo) [Synthesis Example 77, (3R*,4S*)-2,2-dimethyl-4-[(2-phenylethyl)amino]-3,4-dihydro-2H-pyrano[2,3-g]quinolin-3-ol 1 maleate]?
A: melting point: 187 to 192 °C (dec.); Atrial Refractory Period (prolongation time on the atrial effective refractory period) (atrium; 0.3 mg/kg): 25 ms

Q: Which results are given for `Cc1cc(Cl)nc2cc3c(cc12)OC(C)(C)[C@H](O)[C@H]3NCCC1CCCCC1.Cl` (relative stereo) [Synthesis Example 53, (3R*,4S*)-7-chloro-2,2,9-trimethyl-4-[(2-cyclohexylethyl)amino]-3,4-dihydro-2H-pyrano[2,3-g]quinolin-3-ol hydrochloride]?
A: melting point: 294 to 295 °C (dec.); Atrial Refractory Period (prolongation time on the atrial effective refractory period) (atrium; 0.3 mg/kg): 30 ms

Q: For `CC1(C)Oc2ccc3nc(C#N)ccc3c2[C@@H](NCCc2ccccc2)[C@@H]1O` (racemic) [Synthesis Example 10, (±)-trans-2-Hydroxy-3,3-dimethyl-1-[(2-phenylethyl)amino]-2,3-dihydro-1H-pyrano[3,2-f]quinoline-8-carbonitrile], which melting point is on record?
A: 93 to 96 °C
